Measured values as given in patent publication US7645740B2, “Peptide sequence found in Laminin 5 for treating skin impairments” (Laboratoires d'Anjou Centre National de la Recherche …, priority 2004, dated 2010).

Key:
[1] = test system: NHK-young (keratinocytes from young individuals); assay: Cell adhesion of NHK-young to immobilized peptide; type: cell-based, human
Experimental: Dose-dependent cell adhesion of NHK-10 years versus NHK-71 years (A) and NHK-11 years versus NHK-60 years (B) peptides TALRIRATYHEY. The peptides were immobilized in 96-well plates at the concentrations given on the abscissa. 3.5×10^4 (A) cells and 4.3×10^4 (B) cells were deposited in each well and plates were incubated at 37° C. for 1 hour. After washing, attached cells were fixed and cell adhesion was measured as described in the methodology section (C). Cells were observed by phase contrast microscopy then photographed. Bar=50 μm.
In order to obtain keratinocytes originating from biopsies taken from young and old individuals and taken from the same anatomical site, the inventors conducted a study of facial skin biopsies. The area of the face situated behind the ears was chosen in order to study only intrinsic aging and to overcome the effects of photo-induced aging. Surgery waste from cosmetic surgery (face lifts) in older individuals and surgery waste from detached ears in young children was collected. It is essential to use biopsies collected on the same day as surgery was performed in order to quickly place the epidermal keratinocytes in culture. Cells from biopsies on elderly individuals (60, 63 and 71 years) and young individuals (8, 10 and 11 years) were used for this study. The keratinocytes were obtained by means of the technique described by Boyce and Ham, 1985. After careful washing in PBS buffer containing antibiotics, fatty tissue located under the dermis was removed from the skin fragments using sterile instruments. Skin was then cut into 3 mm^2 sections which were placed in a sterile solution of 0.25% trypsin in PBS for 16 hours at 4° C. Dermis/epidermis separation was performed using tweezers in a Petri dish containing culture medium in order to stop the enzyme action of trypsin. Epidermal fragments were then aspirated and blown out several times using a pipette in order to detach free basal cells. […]

[2] = Quantity of peptide immobilized on 96-well plates by amino acid analysis; conditions: 18 hours at +4° C.
Experimental: The peptide was diluted in sterile PBS. Samples containing the peptide to be assayed were lyophilized by evaporation. They were deposited in a reactor and placed under vacuum in order to eliminate oxygen likely to oxidize certain amino acids. Hydrolysis of the peptide bonds was carried out in a hydrochloric acid mixture (HCL 6N, ⅔), trifluoroacetic acid (TFA, ⅓) at 150° C. for 45 minutes. Gas hydrolysis prevented contamination by ions present in the acids. The samples were then dried and dissolved in a suitable buffer for ion-exchange chromatography (sodium citrate). Ion-exchange chromatography makes it possible to separate amino acids according to their ionic strength and, on leaving the column, they react with a reagent (ninhydrin) to form a dyed complex with primary amines (violet, readable at 570 nm). Ninhydrin also reacts with secondary amines (proline, hydroxyproline) to form a yellow compound that can be read at 440 nm. Two separate chromatograms allow the samples to be analysed.
A semi-automatic Beckman 6300 analyser optimised for this analysis was used along with Beckman Gold software in order to quantify the chromatograms. […]
FIG. 17 gives the data obtained in the experiments aimed at identifying the assay conditions for the peptide deposited in 96-well plates and not immobilized. Five experiments were carried out with decreasing quantities of peptide, from 5 μg to 0.7 μg. […]

In the case of “TALRIRATYGEY (Human laminin 5) [Peptide 1]”, the “deposited peptide quantity triggering adhesion” value ([1]; NHK-young) is reported as 0.08 µg, the “cell adhesion to immobilized peptide” value ([1]; NHK-young, 0 to 5 micrograms per well, 1 hour 37° C.) is reported as “triggered dose-dependent cell adhesion” and the “number of NHK-young cells attached compared to NHK-old (fold)” value ([1]; both experiments (10 vs 71 years, 11 vs 60 years), identical cell numbers) is reported as roughly 2. The “quantity of peptide remaining in the supernatant after immobilization, of quantity added” value ([2]; 3.55 μg, 2.56 μg, 1.23 μg and 0.73 μg deposited) was “approximately 90%” and the “mean quantity remaining in solution in the wells” value ([2]; Q1, average starting quantity 2.44 μg, five supernatants) was 2.212 µg.
